Data taken from US20190247333A1, “METHOD OF REDUCTION IN […] […]” (ZOGENIX INTERNATIONAL LIMITED, priority 2017, published 2019).

Key:
[1] = test system: patients with Dravet syndrome; experiment: Open-label extension (OLE) study (Study 1503); type: in vivo, human; details: for median decrease in MCSF over the entire observation period compared to baseline: OLE interim analysis
Protocol: Table 7 presents additional analysis of seizure free intervals in the two placebo-controlled studies prior to the OLE. Inclusion criteria in both studies were for patients aged ≥2 years. Subgroup analysis was performed on patients between ≥2 to <6 years and on patients ≥6 years.
Patients (2-18 years old) entered a long-term, OLE study (Study 1503) after completing either Study 1 or Study 1504: Study 1 (14 wk; FFA: 0, 0.2, or 0.8 mg/kg/d; max, 30 mg/d in stiripentol [STP]-free AED regimens) or Study 1504 (15 wk; FFA: 0.5 mg/kg/d; max, 20 mg/d in AED+STP regimens). In 1503, all patients received 0.2 mg/kg/d FFA for 1 month; dosing was titrated to therapeutic effect thereafter.
A total of 42 of 158 (26.6%) patients who enrolled in the OLE were <6 years old at time of entry into the OLE study. The median baseline monthly convulsive seizure frequency (MCSF) prior to double-blind treatment was 10.7 seizures/month (range, 4.0 to 147.3). At the time of the OLE interim analysis, the median decrease in MCSF over the entire observation period compared to baseline was −76% (P<0.001) compared with −64% in the overall study population during the same time period.

[2] = test system: patients with Dravet syndrome; details: cited from earlier work
[3] = test system: patients with Dravet syndrome; experiment: Study 1: Phase 3 randomized, double-blind, placebo-controlled study of ZX008 as adjunctive therapy (ZX008-1501/1502); type: in vivo, human; details: for mean (SD) number of non-convulsive seizures (all types) per 28 days: Baseline; for reduction from Baseline in non-convulsive seizure frequency: T+M Period; for mean (SD) non-convulsive seizure frequency per 28 days: end of T+M Period
Protocol: The first 119 subjects to be randomized in both identical studies combined were analyzed and reported as Study 1 (FIG. 1), covered by a Statistical Analysis Plan (SAP).
Primary and key secondary endpoints in the Study 1 SAP were pre-determined. All patients were treated twice per day over a period of 14 weeks using an oral syringe to administer the formulation. The treatment period included a two-week titration period and a 12-week maintenance period.
The initial results of Study 1 are outlined below. The randomized, double blind, placebo controlled, Phase 3 study enrolled 119 patients across sites in the United States, Canada, Europe and Australia. The median age of patients was 8 years, the mean age of patients was 9 years (range, 2-18 years) (FIG. 2).
Patients were titrated to their target dose over two weeks, and then remained at that fixed dose for 12 weeks. The mean baseline convulsive seizure frequency across the study groups was approximately 40 seizures per month. 110 (92%) patients completed the study (85% 0.8 mg/kg/day; 100% 0.2 mg/kg/day; 93% placebo).
The proportion of patients who achieved ≥75% seizure reductions, a secondary (non-key) efficacy measure, is also presented.
The mean number of convulsive seizure free days, defined as a day for which diary data are available and no convulsive seizures have been reported, was determined for each treatment group during the Baseline and T+M Periods. Using a parametric analysis, comparisons for the ZX008 groups to placebo were estimated from an ANCOVA model with treatment group (3 levels) and age group (<6 years, ≥6 years) as factors, log baseline number of convulsive seizure free days as a covariate and log convulsive seizure free days (Titration+Maintenance, or Maintenance Period) as response. The mean (SD) number of convulsive seizure free days per 28 days during the Baseline Period was 12.6 (7.68), 15.7 (6.80), and 14.6 (7.59) for the placebo, 0.2 and 0.8 mg/kg/day groups, respectively. […] The mean (SD) number of convulsive seizure free days for the 0.2 mg/kg/day group was 17.9 (8.04) days, which was numerically greater than placebo, but was not statistically significant (p=0.514). Similar results were obtained with a nonparametric analysis where the difference between the 0.8 mg/kg/day and placebo groups was statistically significant (p<0.001) while the difference between the 0.2 mg/kg/day and placebo groups was not (p=0.102).

[4] = long-term fenfluramine treatment

## CCNC(C)Cc1cccc(C(F)(F)F)c1 (racemic) [fenfluramine, 3-trifluoromethyl-N-ethylamphetamine]
[1]; Dravet patients 6 years of age or less
  reduction in MCSF: sustained, clinically meaningful reduction in MCSF
[1]; overall study population
  median decrease in MCSF over the entire observation period compared to baseline: −64%
[1]; patients <6 years old at entry
  median decrease in MCSF over the entire observation period compared to baseline: −76%
[1]; OLE, patients <6 years old
  most frequently reported AE's: pyrexia, nasopharyngitis, upper respiratory tract infections, and diarrhea
[2]; fenfluramine and valproate, average 0.34 mg/kg/day for between 1 and 22 years
  Seizure-free Patients: 66.6%
[2]; [4]
  heart valve defects by echocardiography: No clinically relevant defects were identified
  reduction in seizures: 75%
[2]; not only photosensitive or self-induced seizures
  incidence of all types of seizures: effectively reduced the incidence of all types of seizures
[3]; 0.2 mg/kg/day group
  mean (SD) number of non-convulsive seizures (all types) per 28 days: 193.6 (478.45) per 28 days
[3]; 0.2 mg/kg/day
  reduction from Baseline in non-convulsive seizure frequency: 9.7%
  mean (SD) non-convulsive seizure frequency per 28 days: 93.7 (219.69) per 28 days
[3]; 0.8 mg/kg/day group
  mean (SD) number of non-convulsive seizures (all types) per 28 days: 335.2 (758.58) per 28 days
[3]; 0.8 mg/kg/day
  reduction from Baseline in non-convulsive seizure frequency: 59.1%
  mean (SD) non-convulsive seizure frequency per 28 days: 127.9 (297.39) per 28 days
